Measured values: patent US20180000942A1, “COMPOSITIONS FOR DRUG ADMINISTRATION” (priority 2013, published 2018)

How the values were obtained:
food intake = settings: injection; cited from earlier work
[1] = New Zealand White, rabbit, in vivo
Description: Thereafter, the animals return to consciousness. At individual time point over a two hour period, 1 mL blood samples are collected from the central ear artery. […] All samples are stored at −70° C. until assaying for melatonin. Melatonin is measured using a commercial ELISA kit manufactured by GenWay Biotech Inc., San Diego, Calif.

blood glucose [2] = experiment: Insulin eye drops with absorption enhancer in xylazine/ketamine anesthetized rats, blood glucose
blood glucose [3] = experiment: Insulin eye drops with […] and nose drops with 0.5% tetradecyl maltoside, blood glucose; format: in vivo, rat; settings: insulin nose drops with 0.5% tetradecyl maltoside added after 120 min
human nasal epithelium = experiment: Irritation of nasal mucosa on daily intranasal administration
[4] = Bioavailability of antisense oligonucleotide given intrajejunally; format: in vivo, Cynomolgus monkeys; settings: AUC over 240 minutes relative to reference
Description: An approximately 7,000 Dalton antisense oligonucleotide (ASO) with a modified backbone (phosphorothioate oligonucleotide as described in U.S. Pat. No. 7,132,530) mixed with alkylglycoside tetradecyl-beta-D-maltoside (Intravail™), was administered to six Cynomolgus monkeys canulated into the jejunum at a dose of 10 mg/kg. The animals were fasted prior to administration. Test agents were dissolved in PBS buffer and injected through the cannula into the jejunum of each animal in a 1.5 mL volume or administered subcutaneously (s.c.) as noted in Table VIII.
The protocol involved a 3 way crossover in which each animal had the first 3 test agents in Table VIII administered on 3 different dates. There was a 1 week washout period between dosing dates. […] Analysis of the blood levels was conducted using quantitative analysis involving solid phase extraction using cationic polystyrene nanoparticles. […]
Quantitative analysis was performed with capillary gel electrophoresis of the extracted samples. […] Using the data obtained from CGE analysis, quantitation of phosphorothioate oligonucleotides was carried out. The amount of oligonucleotides in the samples (nON) was calculated using the following formula: […]
The relative bioavailabilities were determined as the ratio of each AUC divided by the AUC for the intravenously administered drug. […]

in vivo = settings: other: buccal, 60 mg
[5] = Oral phenylephrine tablets with alkylsaccharide; format: in vivo, canine
Description: In a canine model, subjects were dosed orally with various phenylephrine (PE) tablet formulations, and blood samples were taken to determine the rate of parent phenyl ethyl phenylephrine absorption. Blood levels of parent phenylephrine were measured. Three subject groups were created with each alkylsaccharide test group containing five subjects in each test group. All subject groups received 10 mg of phenylephrine as a single tablet. Each subject was in the fasting state for overnight and two hours post dose. Blood samples were taken at pre-dose, 5, 10, 15, 30, 45 min., 1, 2, and 3 hours.
Comparator was the standard 30 mg (total weight including excipients) phenylephrine tablet was no absorption enhancer. Group number 2 tablets contain the alkylsaccharide designated A3, which is n-dodecyl-beta-D-maltoside in the amounts of 2.5 mg, 5 mg, and 7.5 mg, respectively. Group number three tablets contain the alkylsaccharide designated B3, which is sucrose monododecanoate, in the amounts of 5 mg, 10 mg, and 20 mg, respectively.

[6] = tested on: Aspergillus niger (ATCC No. 16404); experiment: Log reduction of microorganisms in cultures with alkylglycoside; format: cell-based; settings: for Log reduction of cultures: PBS pH 7, 1 mg/mL PYY; for Log reduction of microorganisms: PBS pH 7, […] BSA
Source text: (§1) 20110-2209. The viable microorganisms used in the invention were not more than five passages removed from the original ATCC culture. As described herein, one passage is defined as the transfer of organisms from an established culture to fresh medium and all transfers are counted.
(§2) The culture conditions for the inoculum culture is substantially as described in Table IV. For example, suitable media can include but is not limited to, Soybean-Casein Digest or Sabouraud Dextrose Agar Medium. […]
(§3) The suspension should be refrigerated if it is not used within 2 hours. To confirm the initial cfu per mL estimate, the number of cfu per mL in each suspension was determined using the conditions of media and microbial recovery incubation times listed in Table IV (e.g., from about 3 to about 7 days). This value serves to calibrate the size of inoculum used in the test. The bacterial and yeast suspensions were used within 24 hours of harvest; whereas the fungal preparation can be stored under refrigeration for up to 7 days.
(§4) To determine which alkylglycoside formulations have antibacterial activity, the formulations were prepared in phosphate buffered saline (PBS) at pH 7. As a source of nutrition, either 1.5 mg/mL bovine serum albumin (BSA; see Tables V and VI) or 1 mg/mL of PYY was added (see Table VII) to the medium. BSA (CAS Number: 9048-46-8) was obtained from Sigma-Aldrich, St. Louis, Mo., USA, n-dodecyl-4-O-α-D-glucopyranosyl-β-D-glucopyranoside and n-tetradecyl-4-O-α-D-glucopyranosyl-β-D-glucopyranoside were obtained from Anatrace Inc., Maumee, Ohio, USA, and PYY was obtained from Bachem California Inc., Torrance, Calif., USA.
(§5) Antibacterial activity of the alkylglycosides were conducted in four sterile, capped bacteriological containers of suitable size into which a sufficient volume of alkylglycoside solution had been transferred. Each container was inoculated with one of the prepared and standardized inoculums and mixed. The volume of the suspension inoculum was between about 0.5% and about 1.0% of the volume of the alkylglycoside solution. […]. To determine the level of inhibition of growth, or reduction of growth based on a logarithmic scale, the initial concentration of viable microorganisms in each test preparation was estimated based on the concentration of microorganisms in each of the standardized inoculum as determined by the plate-count method. The inoculated containers were then incubated at about 22.5° C.±2.5. The growth or non-growth of the microorganisms in each culture/container were again determined at day 14 and day 28. The number of cfu present in each calculation was determined by the plate-count procedure standard in the art for the applicable intervals. The change in the orders of magnitude of bacterium and/or fungi was then determined by subtracting the first calculated log 10 values of the concentrations of cfu per mL present at the start or beginning (e.g., day 0), from the log 10 values of the concentration of cfu per mL for each microorganism at the applicable test intervals (e.g., day 14 and day 28; see Tables V, VI and VII).

[7] = tested on: Staphylococcus aureus (ATCC No. 6538); experiment: as above; format: cell-based; settings: for Log reduction of cultures: PBS pH 7, 1 mg/mL PYY; for Log reduction of microorganisms: PBS pH 7, […] BSA
Source text: as §1, §2, §3, §4, §5

[8] = tested on: Escherichia coli (ATCC No. 8739); experiment: as above; format: cell-based; settings: for Log reduction of cultures: PBS pH 7, 1 mg/mL PYY
Source text: as §1, §2, §3, §4, §5

[9] = tested on: Candida albicans (ATCC No. 10231); experiment: as above; format: cell-based; settings: for Log reduction of cultures: PBS pH 7, 1 mg/mL PYY; for Log reduction of microorganisms: PBS pH 7, […] BSA
Source text: as §1, §2, §3, §4, §5

PYY: gut hormone fragment peptide PYY3-36
reduction of food eaten versus usual (food intake): 30%

COc1ccc2[nH]cc(CCNC(C)=O)c2c1 [melatonin, 5-methoxy-N-acetyltryptamine]
time to maximal concentration versus tablets without alkyl saccharides [1]: approximately one half the time

CCCCCCCCCCCCCCO[C@@H]1O[C@H](CO)[C@@H](O[C@H]2O[C@H](CO)[C@@H](O)[C@H](O)[C@H]2O)[C@H](O)[C@H]1O [Tetradecyl Maltoside, n-tetradecyl-4-O-α-D-glucopyranosyl-β-D-glucopyranoside]
effect as absorption enhancer for ocular insulin (blood glucose lowering), in words (blood glucose [2]; 0.5% enhancer): effective
effect as absorption enhancer for ocular insulin (blood glucose lowering), in words (blood glucose [2]; […] enhancer): effective
Blood Glucose (blood glucose [3]; time 150 min): 74 mg/dL
Blood Glucose (blood glucose [3]; time 165 min): 76 mg/dL
Blood Glucose (blood glucose [3]; time 180 min): 68 mg/dL
irritation of the nasal mucosa (human nasal epithelium; […] in OTC nasal saline, 33 days): no observable irritation
Average Bioavailability (n = 6) [4]: up to 18%

O=C(c1ccc(OCCN2CCCCC2)cc1)c1c(-c2ccc(O)cc2)sc2cc(O)ccc12 [raloxifene, Raloxifene]
bioavailability (in vivo): ≥ 4%

CCCCCCCCCCCC(=O)OC[C@H]1O[C@H](O[C@]2(CO)O[C@H](CO)[C@@H](O)[C@@H]2O)[C@H](O)[C@@H](O)[C@@H]1O [sucrose dodecanoate, sucrose monododecanoate]
irritation of the nasal mucosa (human nasal epithelium; 47 days): no observable irritation
increase of oral bioavailability of phenylephrine in compressed tablets ([5]; maximum over the loadings tested): up to 50%

CCCCCCCCCCCCO[C@@H]1O[C@H](CO)[C@@H](O[C@H]2O[C@H](CO)[C@@H](O)[C@H](O)[C@H]2O)[C@H](O)[C@H]1O [Dodecyl Maltoside, n-Dodecyl-4-O-α-D-glucopyranosyl-β-D-glucopyranoside]
Log reduction of cultures ([6]; Day 14): 4.7 orders of orders of magnitude reduction
Log reduction of cultures ([6]; Day 28): 4.7 orders of orders of magnitude reduction
Log reduction of microorganisms ([6]; Day 14): 0.7 orders of orders of magnitude reduction
Log reduction of microorganisms ([6]; Day 28): No growth
Log reduction of cultures ([7]; Day 14): ≧4.9 orders of orders of magnitude reduction
Log reduction of cultures ([7]; Day 28): ≧4.9 orders of orders of magnitude reduction
Log reduction of microorganisms ([7]; Day 14): ≧5.2 orders of orders of magnitude reduction
Log reduction of microorganisms ([7]; Day 28): ≧5.2 orders of orders of magnitude reduction
Log reduction of cultures ([8]; Day 14): ≧5 orders of orders of magnitude reduction
Log reduction of cultures ([8]; Day 28): ≧5 orders of orders of magnitude reduction
Log reduction of microorganisms ([8]; PBS pH 7, […] BSA, Day 28): 0.1 orders of orders of magnitude reduction
Log reduction of cultures ([9]; Day 14): ≧4.5 orders of orders of magnitude reduction
Log reduction of cultures ([9]; Day 28): ≧4.5 orders of orders of magnitude reduction
Log reduction of microorganisms ([9]; Day 14): 3.0 orders of orders of magnitude reduction
Log reduction of microorganisms ([9]; Day 28): ≧5.3 orders of orders of magnitude reduction
effect as absorption enhancer for ocular insulin (blood glucose lowering), in words (blood glucose [2]; 0.5% enhancer): equally effective
effect as absorption enhancer for ocular insulin (blood glucose lowering), in words (blood glucose [2]; 0.5% enhancer, listed as dodecyl-β-D-maltoside): prompt and sustained fall in blood glucose levels
increase of oral bioavailability of phenylephrine in compressed tablets ([5]; dog, in vivo, po): up to 56%
